Data reported in ChEMBL document CHEMBL3885861, “Open TG-GATES”.

Species: Rattus norvegicus
Experiment: Open TG-GATES - Regimen: Single
Assay type: toxicity, organism-based, Sprague-Dawley
Parameters: regimen Single, gender Male, age 6 weeks
Settings: in vivo, po, 0 mg/kg, route gavage, dose level Control; for APTT / Bas / Eos / Fbg / Hb / Ht / Lym / MCH / MCHC / MCV / Mono / Neu / PT / Plat / RBC / Ret / WBC: tissue Blood; for KIDNEY_L / KIDNEY_R / KIDNEY_TOTAL: tissue Kidney; for LIVER: tissue Liver; for A/G / ALP / ALT / AST / BUN / CRE / Ca / Cl / DBIL / GLC / IP / K / LDH / Na / PL / RALB / TBIL / TC / TG / TP / gamma-GTP: tissue Plasma

Brc1ccccc1 [BROMOBENZENE]
TERMINAL_BW (3 h): 190.9 g
APTT (3 h): 15.7 s
Bas (3 h): 0.2%
Eos (3 h): 0.8%
Fbg (3 h): 247.4 mg/dL
Hb (3 h): 13.1 g/dL
Ht (3 h): 39.4%
Lym (3 h): 72.8%
MCH (3 h): 21.2 pg
MCHC (3 h): 33.2%
MCV (3 h): 63.8 fL
Mono (3 h): 4.2%
Neu (3 h): 21.6%
PT (3 h): 12.4 s
Plat (3 h): 117.7 x10_4/uL
RBC (3 h): 618.4 x10_4/ul
Ret (3 h): 9.8%
WBC (3 h): 108.2 x10_2/uL
KIDNEY_L (3 h): 0.9 g
KIDNEY_R (3 h): 0.8 g
KIDNEY_TOTAL (3 h): 1.7 g
LIVER (3 h): 8.1 g
A/G (3 h): 0.9
ALP (3 h): 1539.4 IU/L
ALT (3 h): 46.2 IU/L
AST (3 h): 83.2 IU/L
BUN (3 h): 10.2 mg/dL
CRE (3 h): 0.2 mg/dL
Ca (3 h): 11.2 mg/dL
Cl (3 h): 106.2 meq/L
DBIL (3 h): 0.022 mg/dL
GLC (3 h): 186.4 mg/dL
IP (3 h): 9.4 mg/dL
K (3 h): 3.8 meq/L
LDH (3 h): 84.2 IU/L
Na (3 h): 141.6 meq/L
PL (3 h): 159.2 mg/dL
RALB (3 h): 2.6 g/dL
TBIL (3 h): 0.058 mg/dL
TC (3 h): 83.6 mg/dL
TG (3 h): 88.4 mg/dL
TP (3 h): 5.5 g/dL
gamma-GTP (3 h): 2 IU/L
TERMINAL_BW (6 h): 191.8 g
APTT (6 h): 15.7 s
Bas (6 h): 0%
Eos (6 h): 1%
Fbg (6 h): 276.2 mg/dL
Hb (6 h): 13 g/dL
Ht (6 h): 39.1%
Lym (6 h): 75.8%
MCH (6 h): 21.4 pg
MCHC (6 h): 33.3%
MCV (6 h): 64.3 fL
Mono (6 h): 3.8%
Neu (6 h): 19.2%
PT (6 h): 12.4 s
Plat (6 h): 109.8 x10_4/uL
RBC (6 h): 608.2 x10_4/ul
Ret (6 h): 9.3%
WBC (6 h): 92.3 x10_2/uL
KIDNEY_L (6 h): 0.8 g
KIDNEY_R (6 h): 0.8 g
KIDNEY_TOTAL (6 h): 1.6 g
LIVER (6 h): 7.6 g
A/G (6 h): 0.9
ALP (6 h): 1707 IU/L
ALT (6 h): 40.8 IU/L
AST (6 h): 76.6 IU/L
BUN (6 h): 9.2 mg/dL
CRE (6 h): 0.2 mg/dL
Ca (6 h): 11 mg/dL
Cl (6 h): 107.4 meq/L
DBIL (6 h): 0.01 mg/dL
GLC (6 h): 184.2 mg/dL
IP (6 h): 10 mg/dL
K (6 h): 4 meq/L
LDH (6 h): 69.6 IU/L
Na (6 h): 141.4 meq/L
PL (6 h): 149.2 mg/dL
RALB (6 h): 2.6 g/dL
TBIL (6 h): 0.054 mg/dL
TC (6 h): 83.2 mg/dL
TG (6 h): 37.8 mg/dL
TP (6 h): 5.5 g/dL
gamma-GTP (6 h): 1.2 IU/L
TERMINAL_BW (9 h): 191.1 g
APTT (9 h): 15.4 s
Bas (9 h): 0%
Eos (9 h): 1%
Fbg (9 h): 258.4 mg/dL
Hb (9 h): 12.9 g/dL
Ht (9 h): 38.8%
Lym (9 h): 74.8%
MCH (9 h): 21.5 pg
MCHC (9 h): 33.4%
MCV (9 h): 64.4 fL
Mono (9 h): 3%
Neu (9 h): 21.2%
PT (9 h): 12.3 s
Plat (9 h): 120.5 x10_4/uL
RBC (9 h): 603 x10_4/ul
Ret (9 h): 9.6%
WBC (9 h): 75.5 x10_2/uL
KIDNEY_L (9 h): 0.8 g
KIDNEY_R (9 h): 0.8 g
KIDNEY_TOTAL (9 h): 1.6 g
LIVER (9 h): 7.4 g
A/G (9 h): 0.9
ALP (9 h): 1515.4 IU/L
ALT (9 h): 36.2 IU/L
AST (9 h): 70.2 IU/L
BUN (9 h): 11.4 mg/dL
CRE (9 h): 0.2 mg/dL
Ca (9 h): 10.8 mg/dL
Cl (9 h): 105.8 meq/L
DBIL (9 h): 0.006 mg/dL
GLC (9 h): 193.4 mg/dL
IP (9 h): 11.8 mg/dL
K (9 h): 3.6 meq/L
LDH (9 h): 81.2 IU/L
Na (9 h): 143.2 meq/L
PL (9 h): 146.8 mg/dL
RALB (9 h): 2.6 g/dL
TBIL (9 h): 0.052 mg/dL
TC (9 h): 84.2 mg/dL
TG (9 h): 39.6 mg/dL
TP (9 h): 5.6 g/dL
gamma-GTP (9 h): 1.4 IU/L
TERMINAL_BW (24 h): 196.6 g
APTT (24 h): 15.4 s
Bas (24 h): 0%
Eos (24 h): 1%
Fbg (24 h): 270.2 mg/dL
Hb (24 h): 12.6 g/dL
Ht (24 h): 37.4%
Lym (24 h): 74.6%
MCH (24 h): 21.1 pg
MCHC (24 h): 33.8%
MCV (24 h): 62.6 fL
Mono (24 h): 3.4%
Neu (24 h): 19.8%
PT (24 h): 12.3 s
Plat (24 h): 114.7 x10_4/uL
RBC (24 h): 598.2 x10_4/ul
Ret (24 h): 8.1%
WBC (24 h): 81.7 x10_2/uL
KIDNEY_L (24 h): 0.8 g
KIDNEY_R (24 h): 0.8 g
KIDNEY_TOTAL (24 h): 1.7 g
LIVER (24 h): 8.7 g
A/G (24 h): 0.9
ALP (24 h): 1600.6 IU/L
ALT (24 h): 50.8 IU/L
AST (24 h): 79.6 IU/L
BUN (24 h): 14.2 mg/dL
CRE (24 h): 0.2 mg/dL
Ca (24 h): 10.5 mg/dL
Cl (24 h): 105.2 meq/L
DBIL (24 h): 0.004 mg/dL
GLC (24 h): 187.4 mg/dL
IP (24 h): 8 mg/dL
K (24 h): 4.2 meq/L
LDH (24 h): 114.4 IU/L
Na (24 h): 141.4 meq/L
PL (24 h): 136.8 mg/dL
RALB (24 h): 2.6 g/dL
TBIL (24 h): 0.04 mg/dL
TC (24 h): 76.8 mg/dL
TG (24 h): 55.4 mg/dL
TP (24 h): 5.5 g/dL
gamma-GTP (24 h): 1.4 IU/L
